Test results: US20130030017A1, “QUINOLINE DERIVATIVES AS ANTIBACTERIAL AGENTS” (priority 2005, published 2013)
In brackets after ≈: the same amount, converted by molar mass.

Key:
[1] = tested on: Streptococcus pyogens (ATCC8668); assay: Microtitre plate assay, IC90 determination (SPY 8668); type: cell-based; settings: 90% inhibitory concentration for bacterial growth, 37° C., resazurin fluorescence; for IC90 SPY 8668: 24 hours; for IC90: Streptococcus, ATCC8668, 24 h
Protocol: (§1) The bacteria used in this study were grown overnight in flasks containing 100 ml Mueller-Hinton Broth (Becton Dickinson—cat. no. 275730) in sterile de-ionized water, with shaking, at 37° C. Stocks (0.5 ml/tube) were stored at −70° C. until use. Bacteria titrations were performed in microtiter plates and colony forming units (CFUs) were determined. In general, an inoculum level of approximately 100 CFUs was used for susceptibility testing.
(§2) Flat-bottom, sterile 96-well plastic microtiter plates were filled with 180 μl of sterile deionized water, supplemented with 0.25% BSA. Subsequently, stock solutions (7.8× final test concentration) of compounds were added in 45 μl volumes in column 2 Serial five-fold dilutions (45 μl in 180 μl) were made directly in the microtiter plates from column 2 to reach column 11. Untreated control samples with (column 1) and without (column 12) inoculum were included in each microtiter plate. Depending on the bacteria type, approximately 10 to 60 CFU per well of bacteria inoculum (100 TCID50), in a volume of 100 μl in 2.8× Mueller-Hinton broth medium, was added to the rows A to H, except column 12. The same volume of broth medium without inoculum was added to column 12 in row A to H. The cultures were incubated at 37° C. for 24 hours under a normal atmosphere (incubator with open air valve and continuous ventilation). At the end of incubation, one day after inoculation, the bacterial growth was quantitated fluorometrically. Therefore resazurin (0.6 mg/ml) was added in a volume of 20 μl to all wells 3 hours after inoculation, and the plates were re-incubated overnight. A change in colour from blue to pink indicated the growth of bacteria. The fluorescence was read in a computer-controlled fluorometer (Cytofluor Biosearch) at an excitation wavelength of 530 nm and an emission wavelength of 590 nm. The % growth inhibition achieved by the compounds was calculated according to standard methods. The IC90 (expressed in μg/ml) was defined as the 90% inhibitory concentration for bacterial growth.

[2] = tested on: Staphylococcus aureus (ATCC29213); assay: Microtitre plate assay, IC90 determination (STA 29213); type: cell-based; settings: 90% inhibitory concentration for bacterial growth, 37° C., resazurin fluorescence; for IC90 STA 29213: 24 hours; for IC90: Staphylococcus aureus, ATCC29213, 24 h
Protocol: as §1, §2

[3] = tested on: Listeria monocytogenes (ATCC49594); assay: Microtitre plate assay, IC90 determination (LMO 49594); type: cell-based; settings: 90% inhibitory concentration for bacterial growth, 37° C., 24 hours, resazurin fluorescence
Protocol: as §1, §2

[4] = tested on: Streptococcus pneumoniae (ATCC6305); assay: Microtitre plate assay, IC90 determination (SPN 6305); type: cell-based; settings: 90% inhibitory concentration for bacterial growth, 37° C., resazurin fluorescence; for IC90 SPN 6305: 24 hours; for IC90: Streptococcus pneumoniae, ATCC6305, 24 h
Protocol: as §1, §2

[5] = tested on: Pseudomonas aeruginosa (ATCC27853); assay: Microtitre plate assay, IC90 determination (PAE 27853); type: cell-based; settings: 90% inhibitory concentration for bacterial growth, 37° C., resazurin fluorescence; for IC90 PAE 27853: 24 hours; for IC90: Pseudomonas aeruginosa, ATCC27853, 24 h
Protocol: as §1, §2

[6] = tested on: Bacillus subtilis (ATCC43639); assay: Microtitre plate assay, IC90 determination (BSU 43639); type: cell-based; settings: 90% inhibitory concentration for bacterial growth, 37° C., 24 hours, resazurin fluorescence
Protocol: as §1, §2

[7] = tested on: methicilline resistant Staphylococcus aureus (MRSA) (a clinical isolate from the University of Antwerp); assay: Microtitre plate assay, IC90 determination (STA RMETH); type: cell-based; settings: 90% inhibitory concentration for bacterial growth, 37° C., 24 hours, resazurin fluorescence
Protocol: as §1, §2

[8] = tested on: Enterococcus faecalis (ATCC29212); assay: Microtitre plate assay, IC90 determination (EFA 29212); type: cell-based; settings: 90% inhibitory concentration for bacterial growth, 37° C., resazurin fluorescence; for IC90 EFA 29212: 24 hours; for IC90: Enterococcus faecalis, ATCC29212, 24 h
Protocol: as §1, §2

[9] = tested on: Staphylococcus aureus (ATCC25923); assay: Microtitre plate assay, IC90 determination (STA 25923); type: cell-based; settings: 90% inhibitory concentration for bacterial growth, 37° C., 24 hours, resazurin fluorescence
Protocol: as §1
Flat-bottom, sterile 96-well plastic microtiter plates were filled with 180 μl of sterile deionized water, supplemented with 0.25% BSA. Subsequently, stock solutions (7.8× final test concentration) of compounds were added in 45 μl volumes in column 2 Serial five-fold dilutions (45 μl in 180 μl) were made directly in the microtiter plates from column 2 to reach column 11. Untreated control samples with (column 1) and without (column 12) inoculum were included in each microtiter plate. […] At the end of incubation, one day after inoculation, the bacterial growth was quantitated fluorometrically. […] The fluorescence was read in a computer-controlled fluorometer (Cytofluor Biosearch) at an excitation wavelength of 530 nm and an emission wavelength of 590 nm. The % growth inhibition achieved by the compounds was calculated according to standard methods. […]

Row | Compound | IC90 SPY 8668 [1] | IC90 STA 29213 [2] | IC90 SPN 6305 [4] | IC90 PAE 27853 [5] | IC90 STA RMETH [7] | IC90 EFA 29212 [8] | IC90 [2] | melting point | other results
1 | COc1nc2ccc(Br)cc2cc1C(c1ccccc1)C(O)(CCc1ccccc1)CCN(C)C (racemic) [Compound 14] | 10.6 µg/mL (≈ 19.9 µM) | 13.4 µg/mL (≈ 25.1 µM) | 42.4 µg/mL (≈ 79.5 µM) | 9.5 µg/mL (≈ 17.8 µM) | 13.4 µg/mL (≈ 25.1 µM) | 9.5 µg/mL (≈ 17.8 µM) | – | – | IC90 LMO 49594 [3]: 10.6 µg/mL (≈ 19.9 µM); IC90 BSU 43639 [6]: 13.4 µg/mL (≈ 25.1 µM); IC90 STA 25923 [9]: 11.9 µg/mL (≈ 22.3 µM)
2 | COc1nc2ccc(Br)cc2cc1C(c1ccccc1)C(O)(CCc1ccccc1)CCN(C)C (racemic) [Compound 15] | 4.2 µg/mL (≈ 7.87 µM) | 4.8 µg/mL (≈ 9 µM) | 7.5 µg/mL (≈ 14.1 µM) | 4.8 µg/mL (≈ 9 µM) | 10.6 µg/mL (≈ 19.9 µM) | 4.8 µg/mL (≈ 9 µM) | – | – | IC90 LMO 49594 [3]: 2.1 µg/mL (≈ 3.94 µM); IC90 BSU 43639 [6]: 10.6 µg/mL (≈ 19.9 µM); IC90 STA 25923 [9]: 4.8 µg/mL (≈ 9 µM)
3 | COc1nc2ccc(Br)cc2cc1C(c1ccccc1)C(O)(CCc1ccc(F)cc1)CCN(C)C (racemic) [Compound 50] | 1.7 µg/mL (≈ 3.08 µM) | 1.7 µg/mL (≈ 3.08 µM) | 0.4 µg/mL (≈ 0.725 µM) | 1.7 µg/mL (≈ 3.08 µM) | 8.7 µg/mL (≈ 15.8 µM) | 1.7 µg/mL (≈ 3.08 µM) | – | – | IC90 LMO 49594 [3]: 8.7 µg/mL (≈ 15.8 µM); IC90 BSU 43639 [6]: 9.8 µg/mL (≈ 17.8 µM)
4 | COc1nc2ccc(Br)cc2cc1C(c1ccccc1)C(O)(CCc1ccc(F)c(F)c1)CCN(C)C (racemic) [Compound 51] | 5.7 µg/mL (≈ 10 µM) | 1.8 µg/mL (≈ 3.16 µM) | 0.4 µg/mL (≈ 0.702 µM) | 9.0 µg/mL (≈ 15.8 µM) | 11.4 µg/mL (≈ 20 µM) | 10.1 µg/mL (≈ 17.7 µM) | – | – | –
5 | COc1nc2ccc(Br)cc2cc1C(c1ccccc1)C(O)(CCc1ccc(C)cc1)CCN(C)C (racemic) [Compound 53] | 1.7 µg/mL (≈ 3.1 µM) | 1.7 µg/mL (≈ 3.1 µM) | 1.7 µg/mL (≈ 3.1 µM) | 3.9 µg/mL (≈ 7.12 µM) | 13.8 µg/mL (≈ 25.2 µM) | 6.9 µg/mL (≈ 12.6 µM) | – | – | –
6 | COc1nc2ccc(C)cc2cc1C(c1ccccc1)C(O)(CCc1ccccc1)CCN(C)C (stereo not shown) [Compound 1] | 7.4 µg/mL (≈ 15.8 µM) | – | – | – | – | – | 9.4 µg/mL (≈ 20.1 µM) | 142 °C | IC90 [4]: 1.9 µg/mL (≈ 4.05 µM); IC90 [5]: 18.7 µg/mL (≈ 39.9 µM); IC90 [8]: 37.2 µg/mL (≈ 79.4 µM)
7 | COc1nc2cccc(Br)c2cc1C(c1ccccc1)C(O)(CCc1ccccc1)CCN(C)C (stereo not shown) [Compound 5] | – | 23.8 µg/mL (≈ 44.6 µM) | 4.8 µg/mL (≈ 9 µM) | – | – | – | – | 156 °C | IC90 [1]: 42.4 µg/mL (≈ 79.5 µM); IC90 [5]: 53.4 µg/mL (≈ 100 µM); IC90 [8]: 53.4 µg/mL (≈ 100 µM)
8 | COc1nc2cccc(Br)c2cc1C(c1ccccc1)C(O)(CCc1ccccc1)CCN(C)C (stereo not shown) [Compound 6] | – | 8.5 µg/mL (≈ 15.9 µM) | 1.7 µg/mL (≈ 3.19 µM) | – | – | – | – | 126 °C | –
9 | COc1nc2ccc(Br)cc2cc1C(c1ccccc1)C(O)(CCc1cccc2ccccc12)CCN(C)C (stereo not shown) [Compound 7] | – | 52.0 µg/mL (≈ 89.1 µM) | 46.4 µg/mL (≈ 79.5 µM) | – | – | – | – | 206 °C | –
10 | COc1nc2ccc(Br)cc2cc1C(c1ccccc1)C(O)(CCc1cccc2ccccc12)CCN(C)C (stereo not shown) [Compound 8] | – | 1.9 µg/mL (≈ 3.26 µM) | 11.6 µg/mL (≈ 19.9 µM) | – | – | – | – | 160 °C | IC90 [1]: 1.9 µg/mL (≈ 3.26 µM); IC90 [3]: 1.9 µg/mL (≈ 3.26 µM); IC90 [5]: 2.3 µg/mL (≈ 3.94 µM); IC90 [7]: 1.9 µg/mL (≈ 3.26 µM); IC90 [8]: 1.9 µg/mL (≈ 3.26 µM)
11 | COc1nc2ccc(Cl)cc2cc1C(c1ccccc1)C(O)(CCc1ccccc1)CCN(C)C (stereo not shown) [Compound 9] | – | – | – | – | – | – | 24.5 µg/mL (≈ 50.1 µM) | 172 °C | IC90 [4]: 1.7 µg/mL (≈ 3.48 µM)
12 | CSc1nc2ccc(Br)cc2cc1C(c1ccccc1)C(O)(CCc1ccccc1)CCN(C)C (stereo not shown) [Compound 10] | – | – | 9.8 µg/mL (≈ 17.8 µM) | – | – | – | 13.8 µg/mL (≈ 25.1 µM) | 191 °C | –
13 | COc1nc2ccccc2cc1C(c1ccccc1)C(O)(CCc1ccccc1)CCN(C)C (stereo not shown) [Compound 12] | – | – | – | – | – | – | 10.2 µg/mL (≈ 22.4 µM) | 122 °C | IC90 [4]: 9.1 µg/mL (≈ 20 µM)
